Assay results: US8415272B2, “Quinoline derivatives and their use as fungicides” (Syngenta Crop Protection LLC, priority 2008, dated 2013)

Assays:
Plasmopara viticola = experiment: Leaf disk assay, Plasmopara viticola (downy mildew of grapevine), preventive; assay type: in vivo; conditions: foliar, 168 h, grapevine leaf disks, assessed seven days after inoculation, read-out: control of fungal infection, Plasmopara viticola
Septoria tritici = experiment: Growth inhibition in nutrient broth, Septoria tritici (leaf blotch), photometric; assay type: cell-based; conditions: Zymoseptoria tritici, PDB broth, 24 C, 72 hrs, read-out: control of fungal infection, Septoria tritici
Pythium ultimum = experiment: Growth inhibition in potato dextrose broth, Pythium ultimum (damping off), photometric; assay type: cell-based; conditions: Globisporangium ultimum, 24° C., 48 hours, read-out: control of fungal infection, Pythium ultimum
Outline: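 Growth inhibition was read photometrically at 48 hours after incubation at 24° C. Test compound was diluted from DMSO to 20 ppm in water and combined with potato dextrose broth seeded with Pythium ultimum mycelial fragments.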

[1] = tested on: Puccinia recondita f.sp. tritici; experiment: Leaf disk assay, Puccinia recondita f.sp. tritici (wheat brown rust), preventive; assay type: in vivo; conditions: foliar, 216 h, wheat leaf segments, assessed nine days after inoculation, read-out: control of fungal infection, Puccinia recondita f.sp. tritici
Pyrenophora teres = experiment: Leaf disk assay, Pyrenophora teres (barley net blotch), preventive; assay type: in vivo; conditions: foliar, 96 h, barley leaf segments, assessed four days after inoculation, read-out: control of fungal infection, Pyrenophora teres
Method: The compounds were tested in a leaf disk assay, with methods described below. The test compounds were dissolved in DMSO and diluted into water to 200 ppm. In the case of the test on Pythium ultimum, they were dissolved in DMSO and diluted into water to 20 ppm. Pyrenophora teres (barley net blotch): Barley leaf segments were placed on agar in a 24-well plate and sprayed with a solution of the test compound. After allowing to dry completely, for between 12 and 24 hours, the leaf disks were inoculated with a spore suspension of the fungus. After appropriate incubation the activity of a compound was assessed four days after inoculation as preventive fungicidal activity.

[2] = tested on: Erysiphe graminis f.sp. tritici; experiment: Leaf disk assay, Erysiphe graminis f.sp. tritici (wheat powdery mildew), preventive; assay type: in vivo; conditions: Blumeria graminis, foliar, 96 h, wheat leaf segments, assessed four days after inoculation, read-out: control of fungal infection, Erysiphe graminis f.sp. tritici
Outline: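 Wheat leaf segments on agar were sprayed with compound at 200 ppm (DMSO stock diluted in water). After 12–24 h drying they were inoculated with powdery mildew spores. Preventive activity was scored 4 days after inoculation.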

Phytophthora infestans = experiment: whole plant or invertebrate; assay type: in vivo; conditions: in Solanum lycopersicum, foliar, 96 h, read-out: control of fungal infection, Phytophthora infestans
Septoria nodorum = experiment: Leaf disk assay, Septoria nodorum (wheat glume blotch), preventive; assay type: in vivo; conditions: Parastagonospora nodorum, foliar, 96 h, wheat leaf segments, assessed four days after inoculation, read-out: control of fungal infection, Septoria nodorum
Fusarium culmorum = experiment: Growth inhibition in nutrient broth, Fusarium culmorum (root rot), photometric; assay type: cell-based; conditions: 48 h, read-out: control of fungal infection, Fusarium culmorum
Method: The compounds were tested in a leaf disk assay, with methods described below. The test compounds were dissolved in DMSO and diluted into water to 200 ppm. In the case of the test on Pythium ultimum, they were dissolved in DMSO and diluted into water to 20 ppm.
Fusarium culmorum (root rot): Conidia of the fungus from cryogenic storage were directly mixed into nutrient broth (PDB potato dextrose broth). After placing a (DMSO) solution of the test compounds into a microtiter plate (96-well format) the nutrient broth containing the fungal spores was added. The test plates were incubated at 24 C and the inhibition of growth was determined photometrically after 48 hrs.

C#CCOCC(C)(C)NC(=O)C(Oc1cc(Cl)c2ncc(C#C)cc2c1)SC (stereo not drawn) [Example 76]
≥ 60%: pest or weed control at 200 ppm (Plasmopara viticola) | inhibition of growth at 60 ppm (Septoria tritici) | inhibition of growth at 20 ppm (Pythium ultimum) | pest or weed control at 200 ppm [1] | pest or weed control at 200 ppm (Pyrenophora teres) | pest or weed control at 200 ppm [2] | pest or weed control at 200 ppm (Phytophthora infestans) | pest or weed control at 200 ppm (Septoria nodorum)

C#Cc1cnc2c(Cl)cc(OC(SC)C(=O)NC3(C)CCC3)cc2c1 (stereo not drawn) [Example 203]
≥ 60%: pest or weed control at 200 ppm (Plasmopara viticola) | inhibition of growth at 60 ppm (Septoria tritici) | inhibition of growth at 20 ppm (Pythium ultimum) | pest or weed control at 200 ppm [1] | pest or weed control at 200 ppm (Pyrenophora teres) | pest or weed control at 200 ppm [2] | pest or weed control at 200 ppm (Phytophthora infestans) | pest or weed control at 200 ppm (Septoria nodorum)

C#Cc1cnc2c(C)cc(OC(SC)C(=O)NC(C)(C#C)COC)cc2c1 (stereo not drawn) [Example 135]
≥ 60%: pest or weed control at 200 ppm (Plasmopara viticola) | inhibition of growth at 60 ppm (Septoria tritici) | inhibition of growth at 20 ppm (Pythium ultimum) | pest or weed control at 200 ppm [1] | pest or weed control at 200 ppm (Pyrenophora teres) | pest or weed control at 200 ppm [2] | pest or weed control at 200 ppm (Phytophthora infestans) | pest or weed control at 200 ppm (Septoria nodorum)

C#Cc1cnc2c(C)cc(OC(SC)C(=O)NC(C)(C)COCOC)cc2c1 (stereo not drawn) [Example 68]
≥ 60%: pest or weed control at 200 ppm (Plasmopara viticola) | inhibition of growth at 60 ppm (Septoria tritici) | pest or weed control at 200 ppm [1] | pest or weed control at 200 ppm (Pyrenophora teres) | pest or weed control at 200 ppm [2] | pest or weed control at 200 ppm (Phytophthora infestans) | pest or weed control at 200 ppm (Septoria nodorum)

C#Cc1cnc2c(C)cc(OC(SC)C(=O)NC(C)(COC)COC)cc2c1 (stereo not drawn) [Example 133]
≥ 60%: pest or weed control at 200 ppm (Plasmopara viticola) | inhibition of growth at 60 ppm (Septoria tritici) | pest or weed control at 200 ppm [1] | pest or weed control at 200 ppm (Pyrenophora teres) | pest or weed control at 200 ppm [2] | pest or weed control at 200 ppm (Phytophthora infestans) | pest or weed control at 200 ppm (Septoria nodorum)

C#Cc1cnc2c(Cl)cc(OC(SC)C(=O)NC(C)(C)C#CCOC)cc2c1 (stereo not drawn) [Example 62]
≥ 60%: pest or weed control at 200 ppm (Plasmopara viticola) | inhibition of growth at 60 ppm (Septoria tritici) | pest or weed control at 200 ppm [1] | pest or weed control at 200 ppm (Pyrenophora teres) | pest or weed control at 200 ppm [2] | pest or weed control at 200 ppm (Phytophthora infestans) | pest or weed control at 200 ppm (Septoria nodorum)

C#Cc1cnc2c(C)cc(OC(SC)C(=O)NC(C)(C#N)CF)cc2c1 (stereo not drawn) [Example 102]
≥ 60%: pest or weed control at 200 ppm [1] | pest or weed control at 200 ppm (Pyrenophora teres)

C#Cc1cnc2ccc(OC(SC)C(=O)NC(C)(C)C#N)cc2c1 (stereo not drawn) [Example 82]
≥ 60%: pest or weed control at 200 ppm (Plasmopara viticola) | inhibition of growth at 60 ppm (Septoria tritici) | inhibition of growth at 20 ppm (Pythium ultimum) | pest or weed control at 200 ppm [1] | pest or weed control at 200 ppm (Pyrenophora teres) | pest or weed control at 200 ppm [2] | pest or weed control at 200 ppm (Phytophthora infestans) | pest or weed control at 200 ppm (Septoria nodorum)

C#Cc1cnc2c(Cl)cc(OC(SC)C(=O)NC(C)(C)C#C)cc2c1 (stereo not drawn) [Example 19]
≥ 60%: pest or weed control at 200 ppm (Plasmopara viticola) | pest or weed control at 200 ppm [1] | pest or weed control at 200 ppm (Pyrenophora teres) | pest or weed control at 200 ppm [2] | pest or weed control at 200 ppm (Phytophthora infestans) | pest or weed control at 200 ppm (Septoria nodorum)

C#Cc1cnc2c(Cl)cc(OC(SC)C(=O)NC(C)(C)C#CCC)cc2c1 (stereo not drawn) [Example 122]
≥ 60%: pest or weed control at 200 ppm (Plasmopara viticola) | inhibition of growth at 60 ppm (Septoria tritici) | inhibition of growth at 20 ppm (Pythium ultimum) | pest or weed control at 200 ppm [1] | pest or weed control at 200 ppm (Pyrenophora teres) | pest or weed control at 200 ppm [2] | pest or weed control at 200 ppm (Phytophthora infestans) | pest or weed control at 200 ppm (Septoria nodorum)

C#Cc1cnc2c(Cl)cc(OC(SC)C(=O)NC(C)(C)COC)cc2c1 (stereo not drawn) [Example 74]
≥ 60%: pest or weed control at 200 ppm (Plasmopara viticola) | inhibition of growth at 60 ppm (Septoria tritici) | inhibition of growth at 20 ppm (Pythium ultimum) | pest or weed control at 200 ppm [1] | pest or weed control at 200 ppm (Pyrenophora teres) | pest or weed control at 200 ppm [2] | pest or weed control at 200 ppm (Phytophthora infestans) | pest or weed control at 200 ppm (Septoria nodorum)

C#Cc1cnc2c(C)cc(OC(SC)C(=O)NC(C)(C)COCC)cc2c1 (stereo not drawn) [Example 95]
≥ 60%: pest or weed control at 200 ppm (Plasmopara viticola) | inhibition of growth at 60 ppm (Septoria tritici) | inhibition of growth at 20 ppm (Pythium ultimum) | pest or weed control at 200 ppm [1] | pest or weed control at 200 ppm (Pyrenophora teres) | pest or weed control at 200 ppm [2] | pest or weed control at 200 ppm (Phytophthora infestans) | pest or weed control at 200 ppm (Septoria nodorum)

C#Cc1cnc2ccc(OC(SC)C(=O)NC(C)(C#C)C#C)cc2c1 (stereo not drawn) [Example 159]
≥ 60%: pest or weed control at 200 ppm (Plasmopara viticola) | inhibition of growth at 60 ppm (Septoria tritici) | inhibition of growth at 60 ppm (Fusarium culmorum) | inhibition of growth at 20 ppm (Pythium ultimum) | pest or weed control at 200 ppm [1] | pest or weed control at 200 ppm [2] | pest or weed control at 200 ppm (Phytophthora infestans) | pest or weed control at 200 ppm (Septoria nodorum)

C#CCOCC#CC(C)(C)NC(=O)C(Oc1cc2cc(C#C)cnc2cc1F)SC (stereo not drawn) [Example 198]
≥ 60%: pest or weed control at 200 ppm (Plasmopara viticola) | inhibition of growth at 60 ppm (Septoria tritici) | inhibition of growth at 60 ppm (Fusarium culmorum) | inhibition of growth at 20 ppm (Pythium ultimum) | pest or weed control at 200 ppm [1] | pest or weed control at 200 ppm [2] | pest or weed control at 200 ppm (Phytophthora infestans) | pest or weed control at 200 ppm (Septoria nodorum)

C#Cc1cnc2c(C)cc(OC(CC)C(=O)NC(C)(C)C#CC)cc2c1 (stereo not drawn) [Example 113]
≥ 60%: pest or weed control at 200 ppm (Plasmopara viticola) | inhibition of growth at 60 ppm (Septoria tritici) | pest or weed control at 200 ppm [1] | pest or weed control at 200 ppm (Pyrenophora teres) | pest or weed control at 200 ppm [2] | pest or weed control at 200 ppm (Phytophthora infestans) | pest or weed control at 200 ppm (Septoria nodorum)

C#CCOCC(C)(C)NC(=O)C(OC)Oc1ccc2ncc(C#C)cc2c1 (stereo not drawn) [Example 127]
≥ 60%: pest or weed control at 200 ppm (Plasmopara viticola) | inhibition of growth at 60 ppm (Septoria tritici) | inhibition of growth at 60 ppm (Fusarium culmorum) | inhibition of growth at 20 ppm (Pythium ultimum) | pest or weed control at 200 ppm [1] | pest or weed control at 200 ppm [2] | pest or weed control at 200 ppm (Phytophthora infestans) | pest or weed control at 200 ppm (Septoria nodorum)

C#Cc1cnc2ccc(OC(SC)C(=O)NC3(C#C)CCCCC3)cc2c1 (stereo not drawn) [Example 206]
≥ 60%: pest or weed control at 200 ppm (Plasmopara viticola) | inhibition of growth at 60 ppm (Septoria tritici) | inhibition of growth at 60 ppm (Fusarium culmorum) | inhibition of growth at 20 ppm (Pythium ultimum) | pest or weed control at 200 ppm [1] | pest or weed control at 200 ppm [2] | pest or weed control at 200 ppm (Phytophthora infestans) | pest or weed control at 200 ppm (Septoria nodorum)

C#Cc1cnc2cc(F)c(OC(SC)C(=O)NC(C)(C)C#CCOCC)cc2c1 (stereo not drawn) [Example 191]
≥ 60%: pest or weed control at 200 ppm (Plasmopara viticola) | inhibition of growth at 60 ppm (Septoria tritici) | inhibition of growth at 60 ppm (Fusarium culmorum) | inhibition of growth at 20 ppm (Pythium ultimum) | pest or weed control at 200 ppm [1] | pest or weed control at 200 ppm [2] | pest or weed control at 200 ppm (Phytophthora infestans) | pest or weed control at 200 ppm (Septoria nodorum)
